From the supplement of paper PMC4380931
± gives the standard deviation of the averaged measurements.

Columns and labels:
Assay in all cases: relative viability (cell count relative to DMSO-treated control) (fraction of DMSO control); higher = more viable cells / less drug effect
LOXIMVI = conditions: 24 h
Experimental: (§1)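 BRAF V600E/D melanoma cell lines were seeded in 96-well plates, treated in 4 replicates with seven doses (3.16 nM to 3.16 uM) of RAF/MEK inhibitors for 24, 48 or 72 h, and stained with Hoechst 33342 (nuclei) and DEVD-NucView488 caspase-3 substrate. Plates were imaged on an Operetta. Relative viability is the cell count normalised to a DMSO-treated control; apoptosis fraction is the fraction of NucView488-positive nuclei.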

WM1552C = test system: WM1552C
Experimental: as §1

MZ7MEL = test system: MZ7MEL
Experimental: as §1

RVH421 = test system: RVH421
Experimental: as §1

MMACSF = test system: MMACSF
Experimental: as §1

WM115 = test system: WM115
Experimental: as §1

C32 = test system: C32
Experimental: as §1

CCCS(=O)(=O)Nc1ccc(F)c(C(=O)c2c[nH]c3ncc(Cl)cc23)c1F [PLX4720]
LOXIMVI
Conditions | relative viability
0.00316 µM | 0.917 ± 0.1
0.01 µM | 0.969 ± 0.2
0.0316 µM | 1.03 ± 0.14
0.1 µM | 1.1 ± 0.098
0.316 µM | 1.05 ± 0.1
1 µM | 1.04 ± 0.11
3.16 µM | 0.913 ± 0.15

relative viability
Conditions | 0.00316 µM | 0.01 µM | 0.0316 µM | 0.1 µM | 0.316 µM | 1 µM | 3.16 µM
C32, 24 h | 0.98 ± 0.043 | 1 ± 0.048 | 1.04 ± 0.047 | 1.01 ± 0.058 | 0.942 ± 0.013 | 0.824 ± 0.018 | 0.693 ± 0.03
C32, 48 h | 1.11 ± 0.052 | 0.905 ± 0.27 | 0.929 ± 0.17 | 1.01 ± 0.11 | 0.857 ± 0.11 | 0.454 ± 0.1 | 0.155 ± 0.029
C32, 72 h | 0.957 ± 0.12 | 1.08 ± 0.086 | 1.1 ± 0.048 | 0.937 ± 0.043 | 0.516 ± 0.044 | 0.182 ± 0.03 | 0.0669 ± 0.021
MMACSF, 24 h | 1.02 ± 0.075 | 0.9436 ± 0.0022 | 0.974 ± 0.11 | 1.04 ± 0.069 | 0.991 ± 0.0027 | 1.02 ± 0.028 | 1.06 ± 0.036
MMACSF, 48 h | 0.92 ± 0.073 | 1.02 ± 0.087 | 1.01 ± 0.025 | 1.01 ± 0.06 | 0.854 ± 0.067 | 0.764 ± 0.036 | 0.679 ± 0.053
MMACSF, 72 h | 0.937 ± 0.068 | 0.923 ± 0.025 | 0.86 ± 0.021 | 0.632 ± 0.014 | 0.531 ± 0.026 | 0.336 ± 0.014 | 0.146 ± 0.0097
MZ7MEL, 24 h | 1.02 ± 0.059 | 1.02 ± 0.13 | 1.14 ± 0.14 | 1.19 ± 0.086 | 1.13 ± 0.087 | 0.956 ± 0.24 | 0.795 ± 0.12
MZ7MEL, 48 h | 1.04 ± 0.071 | 0.99 ± 0.14 | 1.02 ± 0.11 | 1.09 ± 0.036 | 0.931 ± 0.059 | 0.608 ± 0.07 | 0.48 ± 0.014
MZ7MEL, 72 h | 1.28 ± 0.2 | 1.16 ± 0.18 | 1.07 ± 0.16 | 0.661 ± 0.035 | 0.504 ± 0.11 | 0.382 ± 0.094 | 0.329 ± 0.041
RVH421, 24 h | 0.932 ± 0.085 | 1.01 ± 0.054 | 0.9915 ± 0.0077 | 1.05 ± 0.12 | 1.054 ± 0.0016 | 0.981 ± 0.034 | 0.909 ± 0.026
RVH421, 48 h | 1.03 ± 0.086 | 0.881 ± 0.11 | 0.948 ± 0.1 | 0.939 ± 0.12 | 0.732 ± 0.018 | 0.673 ± 0.03 | 0.541 ± 0.04
RVH421, 72 h | 0.978 ± 0.034 | 1.03 ± 0.022 | 1.01 ± 0.059 | 0.89 ± 0.058 | 0.678 ± 0.059 | 0.569 ± 0.053 | 0.483 ± 0.017
WM115, 24 h | 1.14 ± 0.13 | 1.39 ± 0.16 | 1.49 ± 0.39 | 1.44 ± 0.32 | 1.58 ± 0.33 | 1.02 ± 0.32 | 1.14 ± 0.18
WM115, 48 h | 1.25 ± 0.62 | 1.37 ± 0.36 | 1.32 ± 0.27 | 1.83 ± 0.6 | 1.67 ± 0.43 | 1.24 ± 0.25 | 0.792 ± 0.073
WM115, 72 h | 1.01 ± 0.1 | 1.03 ± 0.06 | 1.03 ± 0.038 | 1.06 ± 0.023 | 0.8596 ± 0.0084 | 0.594 ± 0.038 | 0.302 ± 0.017
WM1552C, 24 h | 1.02 ± 0.016 | 1.05 ± 0.03 | 1.031 ± 0.0017 | 1.08 ± 0.011 | 1.02 ± 0.021 | 1.064 ± 0.0044 | 0.9942 ± 0.0011
WM1552C, 48 h | 0.976 ± 0.064 | 0.994 ± 0.048 | 1.01 ± 0.066 | 0.977 ± 0.013 | 0.839 ± 0.15 | 0.795 ± 0.06 | 0.723 ± 0.027
WM1552C, 72 h | 1.04 ± 0.11 | 1.13 ± 0.13 | 1.13 ± 0.15 | 1.03 ± 0.15 | 0.83 ± 0.096 | 0.576 ± 0.052 | 0.497 ± 0.048
